Reference: the supplement of paper PMC10307832

Tests used:
Assay in all cases: relative viability (nuclei count vs DMSO), 5 days (fraction); higher = more cells survive
Neratinib + Pictilisib = compound: CCOc1cc2ncc(C#N)c(Nc3ccc(OCc4ccccn4)c(Cl)c3)c2cc1NC(=O)/C=C/CN(C)C [Neratinib] + CS(=O)(=O)N1CCN(Cc2cc3nc(-c4cccc5[nH]ncc45)nc(N4CCOCC4)c3s2)CC1 [Pictilisib] (partner 1 µM)
In short: (§1)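 A single step with final 0.05% Triton X-100, 1% formaldehyde and 1 ug/ml Hoechst fixed the cells and stained nuclei 5 days after treatment. Lung cancer cell lines in 1536-well plates had been treated by pin tool the day after seeding with one drug alone or a fixed anchor-drug dose plus five library-drug doses (not always all listed) in √10 steps, and nuclei were counted on 4× images. Relative viability is the ratio of nuclei in treated wells to nuclei in vehicle wells, taken as the median of duplicate plates.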

Neratinib + Crizotinib = compound: CCOc1cc2ncc(C#N)c(Nc3ccc(OCc4ccccn4)c(Cl)c3)c2cc1NC(=O)/C=C/CN(C)C [Neratinib] + C[C@@H](Oc1cc(-c2cnn(C3CCNCC3)c2)cnc1N)c1c(Cl)ccc(F)c1Cl [Crizotinib] (partner 1 µM)
In short: as §1

Neratinib + Dasatinib = compound: CCOc1cc2ncc(C#N)c(Nc3ccc(OCc4ccccn4)c(Cl)c3)c2cc1NC(=O)/C=C/CN(C)C [Neratinib] + Cc1nc(Nc2ncc(C(=O)Nc3c(C)cccc3Cl)s2)cc(N2CCN(CCO)CC2)n1 [Dasatinib] (partner 0.075 µM)
In short: as §1

Neratinib + Vorinostat = compound: CCOc1cc2ncc(C#N)c(Nc3ccc(OCc4ccccn4)c(Cl)c3)c2cc1NC(=O)/C=C/CN(C)C [Neratinib] + O=C(CCCCCCC(=O)Nc1ccccc1)NO [Vorinostat] (partner 1 µM)
In short: as §1

Cell Line | relative viability (Neratinib + Pictilisib; first compound 0.01 µM) | relative viability (Neratinib + Pictilisib; first compound 0.03162 µM) | relative viability (Neratinib + Pictilisib; first compound 0.1 µM) | relative viability (Neratinib + Pictilisib; first compound 0.3162 µM) | relative viability (Neratinib + Pictilisib; first compound 1 µM) | relative viability (Neratinib + Crizotinib; first compound 0.01 µM) | relative viability (Neratinib + Crizotinib; first compound 0.03162 µM) | relative viability (Neratinib + Crizotinib; first compound 0.1 µM) | relative viability (Neratinib + Crizotinib; first compound 0.3162 µM) | relative viability (Neratinib + Crizotinib; first compound 1 µM) | relative viability (Neratinib + Dasatinib; first compound 0.01 µM) | relative viability (Neratinib + Dasatinib; first compound 0.03162 µM) | relative viability (Neratinib + Dasatinib; first compound 0.1 µM) | relative viability (Neratinib + Dasatinib; first compound 0.3162 µM) | relative viability (Neratinib + Dasatinib; first compound 1 µM) | relative viability (Neratinib + Vorinostat; first compound 0.01 µM) | relative viability (Neratinib + Vorinostat; first compound 0.03162 µM) | relative viability (Neratinib + Vorinostat; first compound 0.1 µM) | relative viability (Neratinib + Vorinostat; first compound 0.3162 µM) | relative viability (Neratinib + Vorinostat; first compound 1 µM)
NCI-H1651 | 0.661 | 0.633 | 0.422 | 0.449 | 0.343 | 0.927 | 0.944 | 0.86 | 0.846 | 0.564 | 0.424 | 0.505 | 0.371 | 0.452 | 0.32 | 0.605 | 0.582 | 0.505 | 0.508 | 0.513
NCI-H1666 | 0.549 |  | 0.327 | 0.218 | 0.271 | 1.29 | 1.13 | 0.579 | 0.595 | 0.566 | 0.842 | 0.887 | 0.701 | 0.581 | 0.586 | 1.14 | 1.08 | 0.901 | 0.879 | 0.87
NCI-H1734 | 0.5 | 0.464 | 0.428 | 0.432 | 0.346 | 0.838 | 0.722 | 0.535 | 0.646 | 0.446 | 0.475 | 0.466 | 0.424 | 0.38 | 0.345 | 0.997 | 0.766 | 0.743 | 0.752 | 0.6
NCI-H1755 | 0.475 | 0.455 | 0.407 | 0.36 | 0.209 | 0.873 | 0.919 | 0.752 | 0.912 | 0.476 | 0.478 | 0.466 | 0.379 | 0.436 | 0.319 | 0.828 | 0.695 | 0.658 | 0.916 | 0.794
NCI-H1915 |  | 1.03 | 0.93 | 0.904 | 0.881 | 0.973 | 0.931 | 0.864 | 0.811 | 0.725 | 0.384 | 0.339 | 0.218 | 0.332 | 0.287 | 0.6 | 0.553 | 0.507 | 0.439 | 0.545
NCI-H1944 | 0.387 | 0.341 | 0.193 | 0.31 | 0.266 | 1.31 | 0.991 | 0.99 | 0.762 | 0.348 | 0.201 | 0.211 | 0.193 | 0.205 | 0.181 | 0.657 | 0.544 | 0.474 | 0.501 | 0.456
NCI-H1975 | 0.328 | 0.372 | 0.209 | 0.104 | 0.143 | 1.14 | 1.05 | 0.752 | 0.442 | 0.193 | 0.443 | 0.505 | 0.313 | 0.124 | 0.146 | 0.764 | 0.822 | 0.723 | 0.354 | 0.264
NCI-H1993 |  | 0.772 | 0.721 | 0.796 |  | 0.859 | 0.901 | 0.586 | 0.771 | 0.677 | 0.638 | 0.607 | 0.558 | 0.589 | 0.575 | 1.07 | 0.795 | 0.423 | 0.676 | 0.574
NCI-H2009 | 0.862 | 0.892 | 0.727 | 0.638 | 0.432 | 1.02 | 1.05 | 0.524 | 0.946 | 0.783 | 0.3 | 0.347 | 0.301 | 0.292 | 0.206 | 0.739 | 0.772 | 0.777 | 0.754 | 0.644
NCI-H2023 | 0.209 | 0.233 | 0.233 | 0.228 | 0.177 | 0.642 | 0.523 | 0.484 | 0.419 | 0.287 | 0.576 | 0.562 | 0.473 | 0.479 | 0.42 | 0.937 | 0.532 | 0.495 | 0.602 | 0.375
NCI-H2085 | 0.526 | 0.436 | 0.462 | 0.408 | 0.373 | 0.992 | 0.928 | 0.823 | 0.664 | 0.483 | 0.261 | 0.264 | 0.254 | 0.21 | 0.234 | 0.825 |  | 0.687 | 0.623 | 0.696
NCI-H2087 | 0.989 | 0.899 |  | 0.799 | 0.492 | 1.02 | 1.03 |  | 0.978 | 0.667 | 0.936 | 0.888 | 0.605 | 0.584 | 0.373 | 0.783 | 0.566 | 0.538 | 0.711 | 0.573
NCI-H2126 |  | 0.495 | 0.431 | 0.414 | 0.365 | 1.05 | 1.03 | 1.03 | 1.06 | 0.51 | 0.589 | 0.602 | 0.523 | 0.426 | 0.338 | 0.776 | 0.79 | 0.706 | 0.574 | 0.379
NCI-H2170 | 0.314 | 0.253 | 0.206 | 0.189 | 0.256 | 1.14 | 0.77 | 0.617 | 0.302 | 0.223 | 0.527 | 0.563 | 0.283 | 0.176 | 0.196 | 0.862 | 0.647 | 0.407 | 0.205 | 0.239
NCI-H2228 | 0.365 | 0.346 | 0.301 | 0.442 | 0.199 | 0.668 | 0.44 | 0.294 | 0.322 | 0.225 | 0.494 | 0.566 | 0.366 | 0.45 | 0.102 | 0.769 | 0.871 | 0.623 | 0.7 | 0.318
NCI-H2347 | 0.603 | 0.547 | 0.503 | 0.582 | 0.524 | 0.693 | 0.743 | 0.629 | 0.675 | 0.464 | 0.282 | 0.35 |  | 0.375 | 0.2 | 0.64 | 0.715 | 0.55 | 0.634 | 0.407
NCI-H2405 | 0.522 | 0.547 | 0.515 | 0.399 | 0.29 | 0.873 | 0.879 | 0.834 | 0.765 | 0.781 | 0.225 | 0.23 | 0.218 | 0.212 | 0.199 | 1.32 | 1.18 | 0.955 | 1.04 | 0.891
NCI-H3122 | 0.634 | 0.589 | 0.474 | 0.619 | 0.214 | 0.291 | 0.284 | 0.222 | 0.188 | 0.198 | 0.872 | 0.939 | 0.729 | 0.565 | 0.132 | 1.04 | 1.09 | 1.02 | 0.992 | 0.609
PC-3 [JPC-3] | 0.81 | 0.739 | 0.616 | 0.536 | 0.473 | 1.09 | 1.09 | 0.997 | 0.948 | 0.345 | 1.11 | 1.1 | 0.885 | 0.757 | 0.286 | 1.14 | 0.82 | 0.783 | 0.424 | 0.665
PC-14 | 0.927 | 0.805 | 0.66 | 0.121 | 0.101 |  | 0.851 | 0.796 | 0.662 | 0.356 | 0.22 | 0.265 | 0.195 | 0.0282 | 0.0541 | 0.773 | 0.754 | 0.557 | 0.359 | 0.0625
RERF-LC-KJ | 0.554 | 0.501 | 0.435 | 0.384 | 0.276 | 0.847 | 0.817 | 0.795 | 0.701 | 0.633 | 0.941 | 0.822 | 0.681 | 0.653 | 0.335 | 0.705 | 0.742 | 0.55 | 0.66 | 0.382
SK-LU-1 | 0.647 | 0.65 | 0.514 | 0.505 | 0.34 | 1.05 |  | 0.848 | 0.604 | 0.402 | 0.174 | 0.175 | 0.168 | 0.195 | 0.173 | 0.805 | 0.878 | 0.728 | 0.651 | 0.421
SK-MES-1 | 0.347 | 0.338 | 0.238 | 0.207 | 0.177 | 1.02 | 0.998 | 0.969 |  | 0.314 | 0.375 | 0.25 | 0.163 | 0.14 | 0.14 | 1.12 | 1.08 | 1.05 | 0.925 | 0.29
SW 1573 | 0.523 | 0.586 | 0.399 | 0.508 | 0.249 | 0.91 | 0.929 | 0.892 | 0.628 | 0.546 | 0.455 | 0.519 | 0.455 | 0.495 | 0.322 | 0.797 | 0.831 | 0.612 | 0.623 | 0.38
UMC-11 | 0.776 | 1.06 | 0.566 | 0.746 | 0.701 | 0.651 | 0.684 | 0.52 | 0.537 | 0.528 | 0.482 | 0.505 | 0.399 | 0.384 | 0.425 | 0.434 | 0.417 | 0.296 | 0.332 | 0.283
